From patent publication US20250195612A1, “Coversin for use in the treatment of rheumatic diseases” (Volution Immuno Pharmaceuticals SA, priority 2018, published 2025)

What was measured:
Human BLT1 = settings: high affinity receptor; ref. [12]; cited from earlier work
Human BLT2 = settings: cited from earlier work
[1] = system: K/BxN serum-transfer arthritis in C57BL/6 mice; assay: K/BxN serum transfer arthritis model, prophylactic (Example 1); type: in vivo, mouse (C57BL/6); settings: 50 mg/kg orally once daily, day 0 to day 14
Description: The K/BxN serum-transfer arthritis model was used to test whether development of arthritis could be prevented by Coversin. This model is a well-known murine model in which the immunological mechanisms occurring in rheumatoid arthritis (RA) are induced by transferring serum from arthritic transgenic K/BxN mice to naive mice. In the absence of treatment arthritic symptoms occur a few days later. This model is recognised to be highly relevant for RA, especially for the preclinical screening of new therapeutic targets for RA and perhaps other forms of inflammatory arthritis.
(§1) Experimental RA was induced using the protocol described by. Five mice were tested in each treatment group.
(§2) On day 0 C57BL/6 mice were assessed for clinical score and paw thickness using standard protocols. All mice received an injection of K/BxN serum on day 0 and on day 2. Each treatment was administered every day from day 0 to day 14. On days where serum was also injected (day 0 and day 2) drug was administered immediately after the serum injection. Clinical score and paw thickness were measured every other day.
Treatment groups were as follows: • Group 1: PBS (vehicle, subcutaneous, q24h) • Group 2: Treatment (Coversin 5 mg/kg subcutaneous, q12h) • Group 3: Treatment (Zileuton 50 mg/kg orally once daily) • Group 4: Treatment (PAS-Coversin 20 mg/kg subcutaneous, once daily)

[2] = system: K/BxN serum-transfer arthritis in C57BL/6 mice; assay: K/BxN serum transfer arthritis model, treatment of established disease (Example 2); type: in vivo, mouse (C57BL/6); settings: 50 mg/kg orally once daily, day 4 to day 14
Description: The K/BxN serum-transfer arthritis (STA) model was used to test whether established arthritic disease could be ameliorated by Coversin.
as §1
as §2, with “day 2. The treatment was” for “day 2. Each treatment was”, “from day 4 to day” for “from day 0 to day”
Treatment groups were as follows: • Group 1: PBS (vehicle) • Group 2: Treatment (PAS-L Coversin 20 mg/kg subcutaneous once daily) • Group 3: Treatment (Zileuton 50 mg/kg orally once daily) • Group 4: Treatment (PAS-Coversin 20 mg/kg subcutaneous once daily)

Row | Structure (SMILES) | Kd (Human BLT1) | lower affinity for LTB4 than BLT1 (Human BLT2; BLT2 compared with BLT1) | Kd (Human BLT2; human BLT2) | development of arthritis [1] | day of maximum clinical score [2]
1 | CCCCC/C=C\C[C@@H](O)/C=C/C=C/C=C\[C@@H](O)CCCC(=O)O [LTB4, Leukotriene B4] | 0.39 to 1.5 nM | 20 fold | 23 nM | – | –
2 | CC(c1cc2ccccc2s1)N(O)C(N)=O (centres unmarked) [Zileuton, N-[1-(1-benzothien-2-yl)ethyl]-N-hydroxyurea] | – | – | – | partially ameliorates the development of arthritis | 6 days
